The source made the active and inactive calls. The calls are words filed in the database; no cut-off is given here.
test system: Mycolicibacterium smegmatis; assay: Antibacterial activity against Mycobacterium smegmatis ATCC 700084 assessed as inhibition of bacterial growth incubated for overnight by serial dilution assay; type: functional, organism-based

| SMILES | Activity |
| --- | --- |
| CC(C)[C@H]1CC[C@H](C)c2c(O)c(O)c(C=O)c(C3=C(O)C(=O)C=C(O)C3=O)c21 | inactive |
| CC(C)[C@H]1CC[C@H](C)c2c(O)c(O)c(CO)c(C3=C(O)C(=O)C4=C(OCc5c(O)c(O)c6c(c54)[C@@H](C(C)C)CC[C@@H]6C)C3=O)c21 | inactive |
| Cc1c(O)c(O)c(C(C)C)c2c1CCC(C(=O)O)=C2 | inactive |
| CC(C)[C@H]1CC[C@H](C)c2c(O)c(O)c(C=O)c(C3=C(O)C(=O)C(c4c(C=O)c(O)c(O)c5c4[C@@H](C(C)C)CC[C@@H]5C)=C(O)C3=O)c21 | inactive |
| CC(C)[C@H]1CC[C@H](C)c2c(O)c(O)c3c(c21)C1=C(OC3)C(=O)C2=C(OCc3c(O)c(O)c4c(c32)[C@@H](C(C)C)CC[C@@H]4C)C1=O | inactive |

test system: Rhodotorula glutinis; assay: Antifungal activity against Rhodotorula glutinis DSM 10134 assessed as inhibition of fungal growth incubated for overnight by serial dilution assay; type: functional, organism-based

| SMILES | Activity |
| --- | --- |
| CC(C)[C@H]1CC[C@H](C)c2c(O)c(O)c(C=O)c(C3=C(O)C(=O)C=C(O)C3=O)c21 | inactive |
| CC(C)[C@H]1CC[C@H](C)c2c(O)c(O)c(CO)c(C3=C(O)C(=O)C4=C(OCc5c(O)c(O)c6c(c54)[C@@H](C(C)C)CC[C@@H]6C)C3=O)c21 | inactive |
| Cc1c(O)c(O)c(C(C)C)c2c1CCC(C(=O)O)=C2 | inactive |
| CC(C)[C@H]1CC[C@H](C)c2c(O)c(O)c(C=O)c(C3=C(O)C(=O)C(c4c(C=O)c(O)c(O)c5c4[C@@H](C(C)C)CC[C@@H]5C)=C(O)C3=O)c21 | inactive |
| CC(C)[C@H]1CC[C@H](C)c2c(O)c(O)c3c(c21)C1=C(OC3)C(=O)C2=C(OCc3c(O)c(O)c4c(c32)[C@@H](C(C)C)CC[C@@H]4C)C1=O | inactive |

test system: Staphylococcus aureus; assay: Antibacterial activity against Staphylococcus aureus DSM 346 assessed as inhibition of bacterial growth incubated for overnight by serial dilution assay; type: functional, organism-based

| SMILES | Activity |
| --- | --- |
| CC(C)[C@H]1CC[C@H](C)c2c(O)c(O)c(C=O)c(C3=C(O)C(=O)C=C(O)C3=O)c21 | inactive |
| CC(C)[C@H]1CC[C@H](C)c2c(O)c(O)c(CO)c(C3=C(O)C(=O)C4=C(OCc5c(O)c(O)c6c(c54)[C@@H](C(C)C)CC[C@@H]6C)C3=O)c21 | inactive |
| Cc1c(O)c(O)c(C(C)C)c2c1CCC(C(=O)O)=C2 | inactive |
| CC(C)[C@H]1CC[C@H](C)c2c(O)c(O)c(C=O)c(C3=C(O)C(=O)C(c4c(C=O)c(O)c(O)c5c4[C@@H](C(C)C)CC[C@@H]5C)=C(O)C3=O)c21 | inactive |
| CC(C)[C@H]1CC[C@H](C)c2c(O)c(O)c3c(c21)C1=C(OC3)C(=O)C2=C(OCc3c(O)c(O)c4c(c32)[C@@H](C(C)C)CC[C@@H]4C)C1=O | inactive |

test system: Escherichia coli; assay: Antibacterial activity against Escherichia coli DSM 1116 assessed as inhibition of bacterial growth incubated for overnight by serial dilution assay; type: functional, organism-based

| SMILES | Activity |
| --- | --- |
| CC(C)[C@H]1CC[C@H](C)c2c(O)c(O)c(C=O)c(C3=C(O)C(=O)C=C(O)C3=O)c21 | inactive |
| CC(C)[C@H]1CC[C@H](C)c2c(O)c(O)c(CO)c(C3=C(O)C(=O)C4=C(OCc5c(O)c(O)c6c(c54)[C@@H](C(C)C)CC[C@@H]6C)C3=O)c21 | inactive |
| Cc1c(O)c(O)c(C(C)C)c2c1CCC(C(=O)O)=C2 | inactive |
| CC(C)[C@H]1CC[C@H](C)c2c(O)c(O)c(C=O)c(C3=C(O)C(=O)C(c4c(C=O)c(O)c(O)c5c4[C@@H](C(C)C)CC[C@@H]5C)=C(O)C3=O)c21 | inactive |
| CC(C)[C@H]1CC[C@H](C)c2c(O)c(O)c3c(c21)C1=C(OC3)C(=O)C2=C(OCc3c(O)c(O)c4c(c32)[C@@H](C(C)C)CC[C@@H]4C)C1=O | inactive |

test system: Schizosaccharomyces pombe; assay: Antifungal activity against Schizosaccharomyces pombe DSM 70572 assessed as inhibition of fungal growth incubated for overnight by serial dilution assay; type: functional, organism-based

| SMILES | Activity |
| --- | --- |
| CC(C)[C@H]1CC[C@H](C)c2c(O)c(O)c(C=O)c(C3=C(O)C(=O)C=C(O)C3=O)c21 | inactive |
| CC(C)[C@H]1CC[C@H](C)c2c(O)c(O)c(CO)c(C3=C(O)C(=O)C4=C(OCc5c(O)c(O)c6c(c54)[C@@H](C(C)C)CC[C@@H]6C)C3=O)c21 | inactive |
| Cc1c(O)c(O)c(C(C)C)c2c1CCC(C(=O)O)=C2 | inactive |
| CC(C)[C@H]1CC[C@H](C)c2c(O)c(O)c(C=O)c(C3=C(O)C(=O)C(c4c(C=O)c(O)c(O)c5c4[C@@H](C(C)C)CC[C@@H]5C)=C(O)C3=O)c21 | inactive |
| CC(C)[C@H]1CC[C@H](C)c2c(O)c(O)c3c(c21)C1=C(OC3)C(=O)C2=C(OCc3c(O)c(O)c4c(c32)[C@@H](C(C)C)CC[C@@H]4C)C1=O | inactive |

test system: Pseudomonas aeruginosa; assay: Antibacterial activity against Pseudomonas aeruginosa DSM PA14 assessed as inhibition of bacterial growth incubated for overnight by serial dilution assay; type: functional, organism-based

| SMILES | Activity |
| --- | --- |
| CC(C)[C@H]1CC[C@H](C)c2c(O)c(O)c(C=O)c(C3=C(O)C(=O)C=C(O)C3=O)c21 | inactive |
| CC(C)[C@H]1CC[C@H](C)c2c(O)c(O)c(CO)c(C3=C(O)C(=O)C4=C(OCc5c(O)c(O)c6c(c54)[C@@H](C(C)C)CC[C@@H]6C)C3=O)c21 | inactive |
| Cc1c(O)c(O)c(C(C)C)c2c1CCC(C(=O)O)=C2 | inactive |
| CC(C)[C@H]1CC[C@H](C)c2c(O)c(O)c(C=O)c(C3=C(O)C(=O)C(c4c(C=O)c(O)c(O)c5c4[C@@H](C(C)C)CC[C@@H]5C)=C(O)C3=O)c21 | inactive |
| CC(C)[C@H]1CC[C@H](C)c2c(O)c(O)c3c(c21)C1=C(OC3)C(=O)C2=C(OCc3c(O)c(O)c4c(c32)[C@@H](C(C)C)CC[C@@H]4C)C1=O | inactive |

test system: Acinetobacter baumannii; assay: Antibacterial activity against Acinetobacter baumannii […] DSM 30008 assessed as inhibition of bacterial growth incubated for overnight by serial dilution assay; type: functional, organism-based

| SMILES | Activity |
| --- | --- |
| CC(C)[C@H]1CC[C@H](C)c2c(O)c(O)c(C=O)c(C3=C(O)C(=O)C=C(O)C3=O)c21 | inactive |
| CC(C)[C@H]1CC[C@H](C)c2c(O)c(O)c(CO)c(C3=C(O)C(=O)C4=C(OCc5c(O)c(O)c6c(c54)[C@@H](C(C)C)CC[C@@H]6C)C3=O)c21 | inactive |
| Cc1c(O)c(O)c(C(C)C)c2c1CCC(C(=O)O)=C2 | inactive |
| CC(C)[C@H]1CC[C@H](C)c2c(O)c(O)c(C=O)c(C3=C(O)C(=O)C(c4c(C=O)c(O)c(O)c5c4[C@@H](C(C)C)CC[C@@H]5C)=C(O)C3=O)c21 | inactive |
| CC(C)[C@H]1CC[C@H](C)c2c(O)c(O)c3c(c21)C1=C(OC3)C(=O)C2=C(OCc3c(O)c(O)c4c(c32)[C@@H](C(C)C)CC[C@@H]4C)C1=O | inactive |

test system: Chromobacterium violaceum; assay: Antibacterial activity against Chromobacterium violaceum DSM 30191 assessed as inhibition of bacterial growth incubated for overnight by serial dilution assay; type: functional, organism-based

| SMILES | Activity |
| --- | --- |
| CC(C)[C@H]1CC[C@H](C)c2c(O)c(O)c(C=O)c(C3=C(O)C(=O)C=C(O)C3=O)c21 | inactive |
| CC(C)[C@H]1CC[C@H](C)c2c(O)c(O)c(CO)c(C3=C(O)C(=O)C4=C(OCc5c(O)c(O)c6c(c54)[C@@H](C(C)C)CC[C@@H]6C)C3=O)c21 | inactive |
| Cc1c(O)c(O)c(C(C)C)c2c1CCC(C(=O)O)=C2 | inactive |
| CC(C)[C@H]1CC[C@H](C)c2c(O)c(O)c(C=O)c(C3=C(O)C(=O)C(c4c(C=O)c(O)c(O)c5c4[C@@H](C(C)C)CC[C@@H]5C)=C(O)C3=O)c21 | inactive |
| CC(C)[C@H]1CC[C@H](C)c2c(O)c(O)c3c(c21)C1=C(OC3)C(=O)C2=C(OCc3c(O)c(O)c4c(c32)[C@@H](C(C)C)CC[C@@H]4C)C1=O | inactive |

test system: Bacillus subtilis; assay: Antibacterial activity against Bacillus subtilis DSM 10 assessed as inhibition of bacterial growth incubated for overnight by serial dilution assay; type: functional, organism-based

| SMILES | Activity |
| --- | --- |
| CC(C)[C@H]1CC[C@H](C)c2c(O)c(O)c(C=O)c(C3=C(O)C(=O)C=C(O)C3=O)c21 | inactive |
| CC(C)[C@H]1CC[C@H](C)c2c(O)c(O)c(CO)c(C3=C(O)C(=O)C4=C(OCc5c(O)c(O)c6c(c54)[C@@H](C(C)C)CC[C@@H]6C)C3=O)c21 | inactive |
| Cc1c(O)c(O)c(C(C)C)c2c1CCC(C(=O)O)=C2 | inactive |
| CC(C)[C@H]1CC[C@H](C)c2c(O)c(O)c(C=O)c(C3=C(O)C(=O)C(c4c(C=O)c(O)c(O)c5c4[C@@H](C(C)C)CC[C@@H]5C)=C(O)C3=O)c21 | inactive |
| CC(C)[C@H]1CC[C@H](C)c2c(O)c(O)c3c(c21)C1=C(OC3)C(=O)C2=C(OCc3c(O)c(O)c4c(c32)[C@@H](C(C)C)CC[C@@H]4C)C1=O | inactive |

test system: Wickerhamomyces anomalus; assay: Antifungal activity against Pichia anomala DSM 6766 assessed as inhibition of fungal growth incubated for overnight by serial dilution assay; type: functional, organism-based

| SMILES | Activity |
| --- | --- |
| CC(C)[C@H]1CC[C@H](C)c2c(O)c(O)c(C=O)c(C3=C(O)C(=O)C=C(O)C3=O)c21 | inactive |
| CC(C)[C@H]1CC[C@H](C)c2c(O)c(O)c(CO)c(C3=C(O)C(=O)C4=C(OCc5c(O)c(O)c6c(c54)[C@@H](C(C)C)CC[C@@H]6C)C3=O)c21 | inactive |
| Cc1c(O)c(O)c(C(C)C)c2c1CCC(C(=O)O)=C2 | inactive |
| CC(C)[C@H]1CC[C@H](C)c2c(O)c(O)c(C=O)c(C3=C(O)C(=O)C(c4c(C=O)c(O)c(O)c5c4[C@@H](C(C)C)CC[C@@H]5C)=C(O)C3=O)c21 | inactive |
| CC(C)[C@H]1CC[C@H](C)c2c(O)c(O)c3c(c21)C1=C(OC3)C(=O)C2=C(OCc3c(O)c(O)c4c(c32)[C@@H](C(C)C)CC[C@@H]4C)C1=O | inactive |

test system: Mucor hiemalis; assay: Antifungal activity against Mucor hiemalis DSM 2656 assessed as inhibition of fungal growth incubated for overnight by serial dilution assay; type: functional, organism-based

| SMILES | Activity |
| --- | --- |
| CC(C)[C@H]1CC[C@H](C)c2c(O)c(O)c(C=O)c(C3=C(O)C(=O)C=C(O)C3=O)c21 | inactive |
| CC(C)[C@H]1CC[C@H](C)c2c(O)c(O)c(CO)c(C3=C(O)C(=O)C4=C(OCc5c(O)c(O)c6c(c54)[C@@H](C(C)C)CC[C@@H]6C)C3=O)c21 | inactive |
| Cc1c(O)c(O)c(C(C)C)c2c1CCC(C(=O)O)=C2 | inactive |
| CC(C)[C@H]1CC[C@H](C)c2c(O)c(O)c(C=O)c(C3=C(O)C(=O)C(c4c(C=O)c(O)c(O)c5c4[C@@H](C(C)C)CC[C@@H]5C)=C(O)C3=O)c21 | inactive |
| CC(C)[C@H]1CC[C@H](C)c2c(O)c(O)c3c(c21)C1=C(OC3)C(=O)C2=C(OCc3c(O)c(O)c4c(c32)[C@@H](C(C)C)CC[C@@H]4C)C1=O | inactive |

test system: Candida albicans; assay: Antifungal activity against Candida albicans DSM 1665 assessed as inhibition of fungal growth incubated for overnight by serial dilution assay; type: functional, organism-based

| SMILES | Activity |
| --- | --- |
| CC(C)[C@H]1CC[C@H](C)c2c(O)c(O)c(C=O)c(C3=C(O)C(=O)C=C(O)C3=O)c21 | inactive |
| CC(C)[C@H]1CC[C@H](C)c2c(O)c(O)c(CO)c(C3=C(O)C(=O)C4=C(OCc5c(O)c(O)c6c(c54)[C@@H](C(C)C)CC[C@@H]6C)C3=O)c21 | inactive |
| Cc1c(O)c(O)c(C(C)C)c2c1CCC(C(=O)O)=C2 | inactive |
| CC(C)[C@H]1CC[C@H](C)c2c(O)c(O)c(C=O)c(C3=C(O)C(=O)C(c4c(C=O)c(O)c(O)c5c4[C@@H](C(C)C)CC[C@@H]5C)=C(O)C3=O)c21 | inactive |
| CC(C)[C@H]1CC[C@H](C)c2c(O)c(O)c3c(c21)C1=C(OC3)C(=O)C2=C(OCc3c(O)c(O)c4c(c32)[C@@H](C(C)C)CC[C@@H]4C)C1=O | inactive |
